Legend:
Format in all cases: in vivo, human
[1] = test system: patients with atopic dermatitis of mild to moderate severity; assay: Randomized, blind, controlled two-armed study: dermatologist-assessed clinical severity (local SCORAD, erythema)
Description: Using a randomized, blind (participant), controlled, two-armed study design, it was the aim to evaluate the cortisone saving potential and the non-inferiority of the test sample during an application twice daily lasting for four weeks compared to the once-weekly treatment with 1% hydrocortisone (HC), followed by an application of the test sample for a further three weeks. The study results were based on an assessment, controlled by the dermatologist, of the degree of severity of the clinical size of atopic dermatitis, the colonization of the skin lesions with S. aureus, biotechnological measurement of parameters of the epidermal barrier function, as well as the itching intensity in the test area.

[2] = test system: lesional skin of patients with atopic dermatitis; assay: Same study: parameters of the epidermal barrier function (TEWL, skin moisture) on lesional skin
Description: (§1) Using a randomized, blind (participant), controlled, two-armed study design, it was the aim to evaluate the cortisone saving potential and the non-inferiority of the test sample during an application twice daily lasting for four weeks compared to the […] treatment with 1% hydrocortisone (HC), followed by an application of the test sample for a further three weeks. The study results were based on an assessment, controlled by the dermatologist, of the degree of severity of the clinical size of atopic dermatitis, the colonization of the skin lesions with S. aureus, biotechnological measurement of parameters of the epidermal barrier function, as well as the itching intensity in the test area.

S. aureus = assay: Same study: colonization of the skin lesions with S. aureus; settings: topical; same two-arm design
Description: as §1

C[C@]12CCC(=O)C=C1CC[C@@H]1[C@@H]2[C@@H](O)C[C@@]2(C)[C@H]1CC[C@]2(O)C(=O)CO [1% hydrocortisone, hydrocortisone]
erythema ([1]; topical, same two-arm design): significant reduction
local SCORAD ([1]; topical, test sample twice daily for four weeks vs 1% HC for first week followed by test sample for three weeks): significant reduction
changes in local SCORAD, erythema, TEWL and S. aureus colonization relative to the other arm ([1]; within the first study week, differences between arms not significant apart from TEWL on day 7): greater changes
skin moisture of lesional skin ([2]; application in the first study week): only slightly
lesional skin TEWL (transepidermal water loss) ([2]; topical, same two-arm design): significant reduction
colonization of skin lesions with S. aureus (S. aureus): significant reduction

Source: US9789099B2, “Cosmetic or dermatological preparation for prophylaxis and/or treatment of atopic dermatitis” (Beiersdorf AG, priority 2012, dated 2017)
